Literature values in patent publication US10695439B2, “Pyrrolobenzodiazepine conjugates” (Medimmune Limited, priority 2016, dated 2020).

How the values were obtained:
[1] = tested on: human tumour cell lines; conditions: quoted from 2014 REF impact study
[2] = tested on: human tumour xenograft models; conditions: quoted from 2014 REF impact study
[3] = relative to SG2057, Hartley et al 2012

COc1ccc(C2=CN3C(=O)c4cc(OC)c(OCCCOc5cc6c(cc5OC)C(=O)N5C=C(c7ccc(OC)cc7)C[C@H]5C=N6)cc4N=C[C@@H]3C2)cc1 [SG2202]
activity against a range of human tumour cell lines [1]: picomolar/sub-picomolar activity | activity in human tumour xenograft models [2]: curative activity

C=C1C[C@H]2C=Nc3cc(OCCCOc4cc5c(cc4OC)C(=O)N4CC(=C)C[C@H]4C=N5)c(OC)cc3C(=O)N2C1 [SG2000]
cytotoxicity, times less cytotoxic than SG2057 [3]: at least 10 times
